Source: patent US12385061B2, “Compositions and methods for chimeric ligand receptor (CLR)-mediated conditional gene expression” (Poseida Therapeutics, Inc., priority 2017, dated 2025)
Where two headings read alike, the source gives them in different places.

Tests used:
[1] = tested on: cells; settings: cited from earlier work
[2] = tested on: cells; assay: Amount of AP1903 needed in vitro for effective signaling of cells; format: cell-based; settings: converted with 1600 Da MW
Protocol: The fixed dose of AP1903 for injection used, for example, may be 0.4 mg/kg intravenously infused over 2 hours. The amount of AP1903 needed in vitro for effective signaling of cells is 10-100 nM (1600 Da MW). This equates to 16-160 μg/L or {tilde over ( )}0.016-1.6 μg/kg (1.6-160 μg/kg). Doses up to 1 mg/kg were well-tolerated in the Phase I study of AP1903 described above. Therefore, 0.4 mg/kg may be a safe and effective dose of AP1903 for this Phase I study in combination with the therapeutic cells.

[3] = cited from earlier work

CC[C@H](C(=O)N1CCCC[C@H]1C(=O)O[C@H](CCc1ccc(OC)c(OC)c1)c1cccc(OCC(=O)NCCNC(=O)COc2cccc([C@@H](CCc3ccc(OC)c(OC)c3)OC(=O)[C@@H]3CCCCN3C(=O)[C@@H](CC)c3cc(OC)c(OC)c(OC)c3)c2)c1)c1cc(OC)c(OC)c(OC)c1 (relative stereo) [AP1903, 2-Piperidinecarboxylic acid, 1-[(2S)-1-oxo-2-(3,4,5-trimethoxyphenyl)butyl]-, 1,2-ethanediylbis[imino(2-oxo-2,1-ethanediyl)oxy-3,1-phenylene[(l R)-3-(3,4-dimethoxyphenyl)propylidene]]ester, [2S-[1(R*),2R*[S*[S*[1(R*),2R*]]]]]-(9Cl)]
amount needed in vitro for effective signaling of cells [1]: 10 to 100 nM
amount needed in vitro for effective signaling of cells, converted [2]: 16 to 160 µg/L
pharmacokinetic profile ([3]; 0.01-1.0 mg/kg IV over 2 hours): favorable pharmacokinetic profile
plasma levels in relation to dose ([3]; 0.01-1.0 mg/kg IV over 2 hours): directly proportional to dose
plasma level as % of maximal concentration ([3]; 0.5 hours post-dose): approximately 18%
plasma level as % of maximal concentration ([3]; 2 hours post-dose): ~7%
plasma level as % of maximal concentration ([3]; 10 hours post-dose): ~1%
doses well-tolerated ([3]; Phase I study): up to 1 mg/kg
safety and tolerability ([3]; at all dose levels (0.01-1.0 mg/kg)): safe and well tolerated
mean Cmax ([3]; over the 0.01-1.0 mg/kg dose range, single doses infused IV over 2 hours, 24 healthy volunteers): 10 to 1275 ng/mL
